This is an account of results in patent publication US9867796B2, “Combination of a leucine source and an omega-3 unsaturated fatty acid source for use in the treatment of hypercalcaemia” (N.V. Nutricia, priority 2009, dated 2018).

Assay [1] deals with tumour-bearing mice (Murine C-26 adenocarcinoma cells). The assay can be described thus: Bone mineral density in C-26 tumour-bearing mice on experimental diets (experiment A). Type of assay: in vivo. As to conditions: diet added to AIN93-M high protein, day 20, compared to TB on control diet (FIG. 1A).
The test system is the same in assay [2]. The assay can be described thus: Plasma calcium levels in C-26 tumour-bearing mice, single or combined ingredients (experiment A). The format is in vivo. The following applies: diet added to AIN93-M high protein, day 20, compared to TB on control diet (FIG. 1B).

Molecules are shown by their SMILES.

Consider `CC(C)C[C@H](N)C(=O)O` [leucine], for which the bone mineral density entry in assay [1] was “did not result in significant changes compared to TB”. Also, in assay [2], the plasma calcium levels entry was “no effect”.
